Series [1] has as its target SERT (Homo sapiens (Human), UniProt P31645). Kind of series: Binding, SERT.
The target of series [2] is Mu opiate receptor (Homo sapiens (Human), UniProt P35372). Kind of series: Receptor binding, Mu opiate receptor.
Series [3] is described as follows: Rat PK study of the compound of Example 2. The series is classed as in vivo. Here is the method:
(§1) Surgically modified rats are housed one per cage, and supplied with water and a commercial rodent diet ad libitum prior to study initiation. Food is withheld from the animals for a minimum of twelve hours before and during the study, until four hours post-dose, at which time food is returned. Animals are dosed IV, SC and PO, and blood samples are collected following the study design in the following table. Blood samples (˜0.25 mL) are collected via JVC or tail vein, placed into chilled blood collection tubes containing sodium heparin as the anticoagulant, and kept on ice until centrifugation. Blood samples are then centrifuged at a temperature of 2 to 8° C., at 3,000 g, for 5 minutes. Drug levels in the plasma samples are quantified via HPLC with MS/MS detection. Pharmacokinetic parameters based on the group geomean concentration versus time data, are calculated using a noncompartmental pharmaceutical data analysis software PK Solutions 2.0 (Summit Research Services, Montrose, Colo.).
This study is performed according to the same procedure as outlined in Example 5a, with the blood samples collected as shown in the table below.

The test system of series [4] is patients with acute exacerbated schizophrenia. In words: Clinical studies of patients with acute exacerbated schizophrenia. The format is in vivo. The following applies: once daily 60 mg P.O., up to 28 days. From the text:
Social avoidance can be a critical and debilitating symptom in patients suffering from anxiety disorders, especially social anxiety disorder, as well as in patients suffering from traumatic anxiety disorders. Social avoidance is often one of the key determinants of whether a person with a severe anxiety disorder is capable of maintaining familial relationships or employment relationships. […] Negative symptoms of schizophrenia can be divided into two categories: emotional experience (e.g., emotional withdrawal, passive social withdrawal, active social avoidance) and emotional expression (e.g., blunted effect, poor rapport, lack of spontaneity, and motor retardation). […] These are the symptoms that are most highly correlated with interpersonal functioning.

Series [5] deals with rat mPFC slices.
Series [6] in a line: Rat PK studies of the compound of Example 3. The following applies: Study One, IV 1 mg/kg.
Series [7] has as its target T1, human D2S receptor (Homo sapiens (Human), UniProt P14416). Kind of series: Cell-based functional cAMP assay, antagonist signaling (reversal of quinpirole inhibition).
Series [8] concerns the target T1, human D2S receptor. Kind of series: Cell-based functional cAMP assay, agonist signaling (inhibition of forskolin-stimulated cAMP).
Series [9] can be described thus: Rat PK study of the compound of Example 1. The format is in vivo. The procedure: as §1
The subject of series [10] is patients with major depressive episodes. The note with it: 40-minute infusion, total dose 0.5 mg/kg, after 24 hours; cited from earlier work.

Structures are written as SMILES.

T1 sequence (P14416 other isoform, or with tags, fused parts or gaps): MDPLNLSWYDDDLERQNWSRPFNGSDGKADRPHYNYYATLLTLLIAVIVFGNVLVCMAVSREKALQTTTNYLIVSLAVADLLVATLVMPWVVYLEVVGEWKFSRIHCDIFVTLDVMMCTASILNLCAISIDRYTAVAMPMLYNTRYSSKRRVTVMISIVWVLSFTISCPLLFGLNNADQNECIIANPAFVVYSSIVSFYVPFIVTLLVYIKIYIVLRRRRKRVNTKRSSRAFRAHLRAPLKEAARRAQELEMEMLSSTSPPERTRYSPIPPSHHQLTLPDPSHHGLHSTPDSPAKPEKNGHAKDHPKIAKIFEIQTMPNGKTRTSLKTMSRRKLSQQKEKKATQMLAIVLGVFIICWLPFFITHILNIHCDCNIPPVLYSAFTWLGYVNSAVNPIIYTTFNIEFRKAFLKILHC
Sequence of Mu opiate receptor (P35372 whole entry): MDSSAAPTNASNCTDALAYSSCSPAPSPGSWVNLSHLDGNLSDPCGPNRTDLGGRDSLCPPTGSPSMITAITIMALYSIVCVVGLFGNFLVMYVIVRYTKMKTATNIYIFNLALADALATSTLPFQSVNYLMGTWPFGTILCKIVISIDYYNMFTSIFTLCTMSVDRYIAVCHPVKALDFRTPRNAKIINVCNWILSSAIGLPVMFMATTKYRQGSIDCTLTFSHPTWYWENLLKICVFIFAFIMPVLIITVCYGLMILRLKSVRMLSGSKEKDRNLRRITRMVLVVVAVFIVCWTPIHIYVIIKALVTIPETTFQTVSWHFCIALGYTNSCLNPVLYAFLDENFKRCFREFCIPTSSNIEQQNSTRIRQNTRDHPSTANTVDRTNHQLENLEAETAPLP
Sequence of SERT (P31645 whole entry): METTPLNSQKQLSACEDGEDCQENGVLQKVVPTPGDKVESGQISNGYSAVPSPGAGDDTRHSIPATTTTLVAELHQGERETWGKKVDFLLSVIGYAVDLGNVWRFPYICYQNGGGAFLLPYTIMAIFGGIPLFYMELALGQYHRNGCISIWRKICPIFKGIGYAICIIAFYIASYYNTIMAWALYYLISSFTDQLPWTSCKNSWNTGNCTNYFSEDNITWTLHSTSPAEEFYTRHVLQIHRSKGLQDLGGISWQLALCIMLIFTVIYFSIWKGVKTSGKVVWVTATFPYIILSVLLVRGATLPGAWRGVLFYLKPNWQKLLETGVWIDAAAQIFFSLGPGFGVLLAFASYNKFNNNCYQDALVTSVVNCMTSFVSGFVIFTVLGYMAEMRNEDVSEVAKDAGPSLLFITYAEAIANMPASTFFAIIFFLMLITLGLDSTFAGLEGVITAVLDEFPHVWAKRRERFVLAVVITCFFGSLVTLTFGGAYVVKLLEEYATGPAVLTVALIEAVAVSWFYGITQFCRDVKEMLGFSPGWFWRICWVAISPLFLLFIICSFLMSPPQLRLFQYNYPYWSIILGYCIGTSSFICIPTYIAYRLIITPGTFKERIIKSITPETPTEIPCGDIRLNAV

As a reminder, the Ki is the dissociation constant of the complex between target and ligand, obtained from inhibition or displacement. Usually AUC stands for the area under the concentration-time curve, a measure of exposure. Lower therefore signals low exposure. The term bioavailability denotes dose-corrected exposure relative to a reference, in per cent. The term Cmax denotes the peak of the concentration-time curve. Consider `CN1CCN2c3c(cccc31)[C@@H]1CN(CCCC(=O)c3ccc(F)cc3)CC[C@@H]12` [Formula B, 4-((6bR,10aS)-3-methyl-2,3,6b,9,10,10a-hexahydro-1H-pyrido-[3′,4′:4,5]-pyrrolo[1,2,3-de]quinoxalin-8-(7H)-yl)-1-(4-fluorophenyl)-1-butanone], for which the “SERT activity (in words)” value in series [1] was “very strong SERT antagonist”. The “mu-opiate activity (in words)” value in series [2] is on record as “no mu-opiate activity”. Also, the Ki in [2] (Mu opiate receptor, read-out: Ki (nM) or maximum inhibition) is above 10000 nM. Moreover, the t-1/2 in series [3] (IV 1 mg/kg) came to 1.4 h. Moreover, in [3] (plasma, IV 1 mg/kg), the AUC worked out at 231 ng·h/mL, the bioavailability came out at 100%, the concentration at 30 min is 92.5 ng/mL and the concentration at 6 h came to 3.1 ng/mL. In [3] (plasma, IV 1 mg/kg), this compound displayed a concentration at 12 h of 0.5 ng/mL. Besides, in [3] (plasma, PO 10 mg/kg), the AUC worked out at 56 ng·h/mL, the Cmax came to 13.8 ng/mL, the bioavailability is 2% and the concentration at 30 min is 12.2 ng/mL. Further, in [3] (plasma, PO 10 mg/kg), the concentration at 1 h was 13.8 ng/mL, the concentration at 6 h was found to be 1.5 ng/mL and the concentration at 12 h came to 0.3 ng/mL. Besides, in series [3] (plasma, SC 45 mg/kg), the AUC was found to be 7630 ng·h/mL, the concentration peaked (Cmax) at 747 ng/mL, the bioavailability was 73% and the concentration at 30 min was found to be 705 ng/mL. Also, in series [3] (plasma, SC 45 mg/kg), the concentration at 1 h stood at 700 ng/mL, the concentration at 6 h is 498 ng/mL, the concentration at 12 h was 168 ng/mL and the concentration at 24 h amounted to 12.3 ng/mL. Moreover, the “symptoms of emotional experience compared to placebo” value in [4] was “significant and unexpected improvement in symptoms of emotional experience”. Moreover, in series [5], the “glutamatergic neurotransmission (NMDA and AMPA receptor conductance)” value was “enhances glutamatergic neurotransmission”.

Regarding `O=C1CN2c3c(cccc3[C@@H]3CN(CCCOc4ccc(F)cc4)CC[C@@H]32)N1` [Formula A, (6bR,10aS)-8-(3-(4-fluorophenoxy)propyl)-6b,7,8,9,10,10a-hexahydro-1H-pyrido[3′,4′:4,5]pyrrolo[1,2,3-de]quinoxalin-2(3H)-one], the “SERT activity (in words)” value in [1] is given as “relatively weak SERT antagonist”. The “mu-opiate activity (in words)” value in series [2] is “very strong mu-opiate antagonist”. In series [6], this compound registered a t-1/2 of 1.1 h.

As to `CN1C(=O)CN2c3c(cccc31)[C@@H]1CN(CCCOc3ccc(F)cc3)CC[C@@H]12` [Compound 1, (6bR,10aS)-8-(3-(4-fluorophenoxy)propyl)-3-methyl-6b,7,8,9,10,10a-hexahydro-1H-pyrido[3′,4′:4,5]pyrrolo[1,2,3-de]quinoxalin-2(3H)-one], the “antagonist activity at the D2S receptor (in words)” value in series [7] was “antagonist activity”. Besides, in [8], the “agonist activity at the D2S receptor (in words)” value is listed as “no detectable agonist activity”. Further, the “Agonist EC50” value in series [8] (CHO-K1 hD2S, 10 μM forskolin) is “no activity”. In addition, in series [9] (IV 1 mg/kg), the t-1/2 came to 1.0 h. In series [9] (plasma, IV 1 mg/kg), the AUC turned out to be 270 ng·h/mL, the peak level (Cmax) was 505 ng/mL, the bioavailability came out at 100% and the concentration at 30 min worked out at 116 ng/mL. In series [9] (plasma, IV 1 mg/kg), this compound showed a concentration at 1 h of 70 ng/mL and a concentration at 6 h of 1.6 ng/mL. For the same compound, in [9] (plasma, PO 1 mg/kg), the AUC amounted to 22.6 ng·h/mL, the concentration peaked (Cmax) at 5 ng/mL, the bioavailability was 10% and the concentration at 30 min came out at 4.2 ng/mL. Further, in [9] (plasma, PO 1 mg/kg), the concentration at 1 h amounted to 2.9 ng/mL and the concentration at 6 h is 1.4 ng/mL. In series [9] (plasma, SC 1 mg/kg), this compound showed an AUC of 247 ng·h/mL, a Cmax of 34 ng/mL, a bioavailability of 90% and a concentration at 30 min of 23.6 ng/mL. Further, in [9] (plasma, SC 1 mg/kg), the concentration at 1 h was 28.1 ng/mL, the concentration at 6 h came out at 12.8 ng/mL and the concentration at 24 h is 1.3 ng/mL.

Take `CNC1(c2ccccc2Cl)CCCCC1=O` (centres unmarked) [ketamine]: the “ratings on the Hamilton Depression Rating Scale (HDRS) compared to placebo” value in series [10] is on record as “significantly improved ratings”.

The values are drawn from US12195462B2, “Organic compound” (INTRA-CELLULAR THERAPIES, INC., priority 2018, dated 2025).
